The record followed here is patent US12103924B2, “Mitogen-activated protein kinase kinase (MEK) degradation compounds and methods of use” (Icahn School of Medicine at Mount Sinai, priority 2020, dated 2024).

For the assay, the system named is HT-29 cells. The experiment in a line: MTT cell viability assay, HT-29. Type of assay: cell-based. The conditions noted are these: Homo sapiens, 72 h, MTT assay, 3 d treatment, serial dilutions.
A word on the GI50: it is the concentration giving 50% growth inhibition. Compound `Cc1ncsc1-c1ccc(CNC(=O)[C@@H]2C[C@@H](O)CN2C(=O)[C@@H](NC(=O)CCOCCNCCCONC(=O)c2ccc(F)c(F)c2Nc2ccc(I)cc2F)C(C)(C)C)cc1` [CPD-003, (2S,4R)-1-((S)-15-(tert-Butyl)-1-(3,4-difluoro-2-((2-fluoro-4-iodophenyl)amino)phenyl)-1,13-dioxo-3,10-dioxa-2,7,14-triazahexadecan-16-oyl)-4-hydroxy-N-(4-(4-methylthiazol-5-yl)benzyl)pyrrolidine-2-carboxamide] came in with a GI50 of 4.8 ± 0.7 µM.
Compound `O=C1CCC(N2C(=O)c3cccc(NCCCCCCNCCCONC(=O)c4ccc(F)c(F)c4Nc4ccc(I)cc4F)c3C2=O)C(=O)N1` (centres unmarked) [CPD-028, N-(3-((6-((2-(2,6-dioxopiperidin-3-yl)-1,3-dioxoisoindolin-4-yl)amino)hexyl)amino)propoxy)-3,4-difluoro-2-((2-fluoro-4-iodophenyl)amino)benzamide] displayed a concentration for 50% growth inhibition (GI50) of 3.8 ± 1.7 µM.
In the case of `Cc1ncsc1-c1ccc(CNC(=O)[C@@H]2C[C@@H](O)CN2C(=O)[C@@H](NC(=O)CCOCCOCCOCCOCCNCCCONC(=O)c2ccc(F)c(F)c2Nc2ccc(I)cc2F)C(C)(C)C)cc1` [CPD-017, (2S,4R)-1-((S)-24-(tert-butyl)-1-(3,4-difluoro-2-((2-fluoro-4-iodophenyl)amino)phenyl)-1,22-dioxo-3,10,13,16,19-pentaoxa-2,7,23-triazapentacosan-25-oyl)-4-hydroxy-N-(4-(4-methylthiazol-5-yl)benzyl)pyrrolidine-2-carboxamide], it took 1.7 ± 0.1 µM to inhibit growth by half (GI50).
The value for `O=C1CCC(N2C(=O)c3cccc(NCCCCCCCNCCCONC(=O)c4ccc(F)c(F)c4Nc4ccc(I)cc4F)c3C2=O)C(=O)N1` (centres unmarked) [CPD-029, N-(3-((7-((2-(2,6-dioxopiperidin-3-yl)-1,3-dioxoisoindolin-4-yl)amino)heptyl)amino)propoxy)-3,4-difluoro-2-((2-fluoro-4-iodophenyl)amino)benzamide] was 4.5 ± 1.9 µM; that for `O=C1CCC(N2C(=O)c3cccc(NCCOCCOCCNCCCONC(=O)c4ccc(F)c(F)c4Nc4ccc(I)cc4F)c3C2=O)C(=O)N1` (centres unmarked) [CPD-020, N-(3-((2-(2-(2-((2-(2,6-dioxopiperidin-3-yl)-1,3-dioxoisoindolin-4-yl)amino)ethoxy)ethoxy)ethyl)amino)propoxy)-3,4-difluoro-2-((2-fluoro-4-iodophenyl)amino)benzamide] was 1.3 ± 0.5 µM.
Compound `Cc1ncsc1-c1ccc(CNC(=O)[C@@H]2C[C@@H](O)CN2C(=O)[C@@H](NC(=O)CCCCCCCCCNCCCONC(=O)c2ccc(F)c(F)c2Nc2ccc(I)cc2F)C(C)(C)C)cc1` [CPD-013, (2S,4R)-1-((S)-19-(tert-butyl)-1-(3,4-difluoro-2-((2-fluoro-4-iodophenyl)amino)phenyl)-1,17-dioxo-3-oxa-2,7,18-triazaicosan-20-oyl)-4-hydroxy-N-(4-(4-methylthiazol-5-yl)benzyl)pyrrolidine-2-carboxamide] yielded a GI50 of 0.5 ± 0.03 µM.
The value for `Cc1ncsc1-c1ccc(CNC(=O)[C@@H]2C[C@@H](O)CN2C(=O)[C@@H](NC(=O)CNCCCONC(=O)c2ccc(F)c(F)c2Nc2ccc(I)cc2F)C(C)(C)C)cc1` [CPD-005, (2S,4R)-1-((S)-11-(tert-Butyl)-1-(3,4-difluoro-2-((2-fluoro-4-iodophenyl)amino)phenyl)-1,9-dioxo-3-oxa-2,7,10-triazadodecan-12-oyl)-4-hydroxy-N-(4-(4-methylthiazol-5-yl)benzyl)pyrrolidine-2-carboxamide] was 1.8 ± 0.4 µM.
The value for `Cc1ncsc1-c1ccc(CNC(=O)[C@@H]2C[C@@H](O)CN2C(=O)[C@@H](NC(=O)CCCCNCCCONC(=O)c2ccc(F)c(F)c2Nc2ccc(I)cc2F)C(C)(C)C)cc1` [CPD-007, (2S,4R)-1-((S)-14-(tert-Butyl)-1-(3,4-difluoro-2-((2-fluoro-4-iodophenyl)amino)phenyl)-1,12-dioxo-3-oxa-2,7,13-triazapentadecan-15-oyl)-4-hydroxy-N-(4-(4-methylthiazol-5-yl)benzyl)pyrrolidine-2-carboxamide] was 3 ± 0.5 µM; that for `Cc1ncsc1-c1ccc([C@H](C)NC(=O)[C@@H]2C[C@@H](O)CN2C(=O)[C@@H](NC(=O)CCCCCCCCCNCCCCONC(=O)c2ccc(F)c(F)c2Nc2ccc(I)cc2F)C(C)(C)C)cc1` [CPD-035, (2S,4R)-1-((S)-20-(tert-butyl)-1-(3,4-difluoro-2-((2-fluoro-4-iodophenyl)amino)phenyl)-1,18-dioxo-3-oxa-2,8,19-triazahenicosan-21-oyl)-4-hydroxy-N—((S)-1-(4-(4-methylthiazol-5-yl)phenyl)ethyl)pyrrolidine-2-carboxamide] was 0.055 ± 0.005 µM.
The value for `Cc1ncsc1-c1ccc(CNC(=O)[C@@H]2C[C@@H](O)CN2C(=O)[C@@H](NC(=O)CCCCCCCNCCCONC(=O)c2ccc(F)c(F)c2Nc2ccc(I)cc2F)C(C)(C)C)cc1` [CPD-011, (2S,4R)-1-((S)-17-(tert-butyl)-1-(3,4-difluoro-2-((2-fluoro-4-iodophenyl)amino)phenyl)-1,15-dioxo-3-oxa-2,7,16-triazaoctadecan-18-oyl)-4-hydroxy-N-(4-(4-methylthiazol-5-yl)benzyl)pyrrolidine-2-carboxamide] was 0.5 ± 0.2 µM; that for `Cc1ncsc1-c1ccc(CNC(=O)[C@@H]2C[C@@H](O)CN2C(=O)[C@@H](NC(=O)CCCCCNCCCONC(=O)c2ccc(F)c(F)c2Nc2ccc(I)cc2F)C(C)(C)C)cc1` [CPD-009, (2S,4R)-1-((S)-15-(tert-butyl)-1-(3,4-difluoro-2-((2-fluoro-4-iodophenyl)amino)phenyl)-1,13-dioxo-3-oxa-2,7,14-triazahexadecan-16-oyl)-4-hydroxy-N-(4-(4-methylthiazol-5-yl)benzyl)pyrrolidine-2-carboxamide] was 2.1 ± 0.1 µM; that for `Cc1ncsc1-c1ccc([C@H](C)NC(=O)[C@@H]2C[C@@H](O)CN2C(=O)[C@@H](NC(=O)CCCCCCCCCCCNCCCONC(=O)c2ccc(F)c(F)c2Nc2ccc(I)cc2F)C(C)(C)C)cc1` [CPD-033, (2S,4R)-1-((S)-21-(tert-butyl)-1-(3,4-difluoro-2-((2-fluoro-4-iodophenyl)amino)phenyl)-1,19-dioxo-3-oxa-2,7,20-triazadocosan-22-oyl)-4-hydroxy-N—((S)-1-(4-(4-methylthiazol-5-yl)phenyl)ethyl)pyrrolidine-2-carboxamide] was 0.099 ± 0.008 µM.
`O=C1CCC(N2C(=O)c3cccc(NCCCCCNCCCONC(=O)c4ccc(F)c(F)c4Nc4ccc(I)cc4F)c3C2=O)C(=O)N1` (centres unmarked) [CPD-027, N-(3-((5-((2-(2,6-dioxopiperidin-3-yl)-1,3-dioxoisoindolin-4-yl)amino)pentyl)amino)propoxy)-3,4-difluoro-2-((2-fluoro-4-iodophenyl)amino)benzamide]: the GI50 amounted to 1.8 ± 0.5 µM.
The value for `Cc1ncsc1-c1ccc(CNC(=O)[C@@H]2C[C@@H](O)CN2C(=O)[C@@H](NC(=O)CCNCCCONC(=O)c2ccc(F)c(F)c2Nc2ccc(I)cc2F)C(C)(C)C)cc1` [CPD-006, (2S,4R)-1-((S)-12-(tert-Butyl)-1-(3,4-difluoro-2-((2-fluoro-4-iodophenyl)amino)phenyl)-1,10-dioxo-3-oxa-2,7,11-triazatridecan-13-oyl)-4-hydroxy-N-(4-(4-methylthiazol-5-yl)benzyl)pyrrolidine-2-carboxamide] was 5 ± 1.1 µM; that for `O=C1CCC(N2C(=O)c3ccc(NCCOCCNCCCONC(=O)c4ccc(F)c(F)c4Nc4ccc(I)cc4F)cc3C2=O)C(=O)N1` (centres unmarked) [CPD-047, N-(3-((2-(2-((2-(2,6-dioxopiperidin-3-yl)-1,3-dioxoisoindolin-5-yl)amino)ethoxy)ethyl)amino)propoxy)-3,4-difluoro-2-((2-fluoro-4-iodophenyl)amino)benzamide] was 1.4 ± 0.7 µM.
The value for `O=C1CCC(N2C(=O)c3ccc(NCCOCCOCCNCCCONC(=O)c4ccc(F)c(F)c4Nc4ccc(I)cc4F)cc3C2=O)C(=O)N1` (centres unmarked) [CPD-048, N-(3-((2-(2-(2-((2-(2,6-dioxopiperidin-3-yl)-1,3-dioxoisoindolin-5-yl)amino)ethoxy)ethoxy)ethyl)amino)propoxy)-3,4-difluoro-2-((2-fluoro-4-iodophenyl)amino)benzamide] was 1.1 ± 0.3 µM.
Then `O=C1CCC(N2C(=O)c3cccc(NCCOCCOCCOCCOCCNCCCONC(=O)c4ccc(F)c(F)c4Nc4ccc(I)cc4F)c3C2=O)C(=O)N1` (centres unmarked) [CPD-022, N-((1-((2-(2,6-dioxopiperidin-3-yl)-1,3-dioxoisoindolin-4-yl)amino)-3,6,9,12-tetraoxa-15-azaoctadecan-18-yl)oxy)-3,4-difluoro-2-((2-fluoro-4-iodophenyl)amino)benzamide], with 0.6 ± 0.09 µM; and `Cc1ncsc1-c1ccc(CNC(=O)[C@@H]2C[C@@H](O)CN2C(=O)[C@@H](NC(=O)CCCNCCCONC(=O)c2ccc(F)c(F)c2Nc2ccc(I)cc2F)C(C)(C)C)cc1` [CPD-008, (2S,4R)-1-((S)-13-(tert-Butyl)-1-(3,4-difluoro-2-((2-fluoro-4-iodophenyl)amino)phenyl)-1,11-dioxo-3-oxa-2,7,12-triazatetradecan-14-oyl)-4-hydroxy-N-(4-(4-methylthiazol-5-yl)benzyl)pyrrolidine-2-carboxamide], with 11 ± 0.9 µM.
On to `Cc1ncsc1-c1ccc(CNC(=O)[C@@H]2C[C@@H](O)CN2C(=O)[C@@H](NC(=O)COCCNCCCONC(=O)c2ccc(F)c(F)c2Nc2ccc(I)cc2F)C(C)(C)C)cc1` [CPD-002, (2S,4R)-1-((S)-14-(tert-Butyl)-1-(3,4-difluoro-2-((2-fluoro-4-iodophenyl)amino)phenyl)-1,12-dioxo-3,10-dioxa-2,7,13-triazapentadecan-15-oyl)-4-hydroxy-N-(4-(4-methylthiazol-5-yl)benzyl)pyrrolidine-2-carboxamide], for which it took 4 ± 0.2 µM to inhibit growth by half (GI50).
In the case of `O=C1CCC(N2C(=O)c3cccc(NCCOCCOCCOCCNCCCONC(=O)c4ccc(F)c(F)c4Nc4ccc(I)cc4F)c3C2=O)C(=O)N1` (centres unmarked) [CPD-021, N-((1-((2-(2,6-dioxopiperidin-3-yl)-1,3-dioxoisoindolin-4-yl)amino)-3,6,9-trioxa-12-azapentadecan-15-yl)oxy)-3,4-difluoro-2-((2-fluoro-4-iodophenyl)amino)benzamide], it took 0.8 ± 0.2 µM to inhibit growth by half (GI50).
